Measurements published in US20230143751A1, “Aromatic Compound And Use Thereof In Preparing Antineoplastic Drugs” (Shanghai Zheye Biotechnology Co. Ltd., priority 2020, published 2023).
Where two headings read alike, the source gives them in different places.

What was measured:
[1] = system: MIA PaCa-2-derived xenograft tumor; test: Pharmacodynamic effect study of MIA PaCa-2-derived xenograft tumor model (test 11); type: in vivo, nude mice; details: MIA PaCa-2 xenograft, 20 mg/kg i.g. QD×21 days
Procedure: (§1) Animal species and number: Balb/c Nude; 6 animals per group.
Test samples: Compound 3-2, and Compound TM-1.
Test groups: blank solvent control group;
Compound 3-2 (20 mg/kg, i.g., QD×21 days);
Compound TM-1 (20 mg/kg, i.g., QD×21 days).
(§2) Animal model establishment: MIA PaCa-2 tumor cells in logarithmic growth phase were cultured in vitro and collected, and inoculated subcutaneously into the right back of nude mice at a quantity of 5×10^6 cells/each. When the tumor volume reached 150-300 mm^3, the tumor-bearing nude mice were randomly grouped. Subsequently, the animals in each group were administered, and the day of the first administration was defined as day 1 of the test.
Administration frequency: once a day.
(§3) General state observation: observation time and frequency: once a day; observation indexes or contents: including but not limited to administration location, appearance and signs, general behavioral activities, mental status, death and other abnormal performance of the animals. The animals were euthanized at the end of the test.
Tumor volume calculation: V=½×long diameter×short diameter^2 (mm^3).

[2] = system: MIA PaCa-2 cells; test: Cell proliferation activity of MIA PaCa-2 by CellTiter-Glo reagent; type: cell-based; details: for IC50: Homo sapiens, MIA PaCa-2
Procedure: MIA PaCa-2 cells in exponential growth phase were digested with trypsin-EDTA, plated in a 96-well plate with 2000-3000 cells per well, and incubated overnight at 37° C. with 5% CO2. Mother solutions were prepared from the test compounds by using DMSO, subjected to gradient elution with DMEM growth medium, and then added into the 96-well plate and incubated in an incubator for 72 h at 37° C. with 5% CO2. After the incubation, CellTiter-Glo test reagent with an equal volume was added into each well and the obtained 96-well plate was incubated after shaking. The chemiluminescence values were determined by microplate reader, and the IC50 values of the test compounds inhibiting the proliferation of MIA PaCa-2 cells were fitted and calculated by GraphPad Prism software.
The test method of inhibitory activity was the same as that in Test 2 in “Biological Tests” part.

[3] = system: MIA PaCa-2-derived xenograft tumor; test: Pharmacodynamics test of MIA PaCa-2-derived xenograft tumor model in nude mice (test 6); type: in vivo
Procedure: as §1
Test samples: Compound 3-2, Compound 3-6, Compound 3-20, Compound 3-12M.
Test groups: blank solvent control group; Compound 3-2 (10 mg/kg, QD×15 days), Compound 3-6 (10 mg/kg, QD×15 days), Compound 3-20 (10 mg/kg, QD×15 days), Compound 3-12M (10 mg/kg, QD×15 days).
as §2, with “paca-2” for “PaCa-2”
Administration route and frequency: oral administration by gavage; once a day.
as §3
Tumor volume calculation: V=½×long diameter×short diameter^2 (mm^3). Tumor growth inhibition rate TGI (%) is used to evaluate the tumor inhibition efficacy of the compounds. TGI (%)=[1−(mean tumor volume in treatment group at the end of administration−mean tumor volume in treatment group at the beginning of administration)/(mean tumor volume in control group at the end of administration−mean tumor volume in control group at the beginning of administration)]×100%.

## C=CC(=O)N1CCN(c2nc(=O)n(-c3c(C)ccnc3C(C)C)c3nc(-c4ccccc4C=C)c(Cl)cc23)[C@@H](C)C1 [Compound 3-2]
[1]
  Tumor inhibition rate (%): +++ (“+++” represents a tumor inhibition rate of >140%)
[2]; 72 h, CellTiter-Glo
  anti-cell proliferation activity against KRAS G12C mutant type cells MIA PaCa-2 (in words): significant anti-cell proliferation activity
[2]; 72 h, CellTiter-Glo, read-out: IC50 value of cell proliferation inhibitory activity of the compound on MIA PaCa-2
  IC50: < 50 nM
[2]; test 12, method of test 2, read-out: IC50 of proliferation inhibitory activity of the compound on MIA Paca-2 cell line
  IC50: ≤ 15 nM
[2]; test 12
  proliferation inhibitory activity on MIA Paca-2 cell line compared with Compound TM-2 (in words): remarkable better
[3]; 10 mg/kg QD×15 days
  inhibition effect on the growth of subcutaneously transplanted tumors derived from pancreatic cancer MIA paca-2 cells in nude mice (in words): significant inhibition effect
[3]; MIA PaCa-2 xenograft, nude mice, 10 mg/kg oral gavage QD×15 days
  Tumor inhibition rate (%): +++ (“+++” represents a tumor inhibition rate of >80%)
